pIC50: −log10 of the molar value.
Key:
[1] = molecular target: T1, ABL1 (64-515) (Homo sapiens (Human), UniProt P00519); test: Caliper ABL1 (64-515) microfluidic mobility shift kinase assay; details: read-out: Caliper ABL1 (64-515) IC50
[2] = molecular target: T1, ABL1 (64-515); test: Radio ABL1 (64-515) radiometric filter-binding kinase assay; format: biochemical; details: 20 μM ATP
Procedure: Pre-incubation of enzyme with compounds (when stated) was performed by exposing the enzyme to compounds prior to addition of the substrate mixture (ATP and/or peptide substrate). […] Filter-plates were washed 3× with 0.5% H3PO4, followed by addition of 30 μL scintillation cocktail (Microscint, Perkin Elmer) per well and then analysed in a TopCount NXT scintillation counter (Perkin Elmer). Results were expressed as IC50 values.

T1 sequence (P00519 64-515): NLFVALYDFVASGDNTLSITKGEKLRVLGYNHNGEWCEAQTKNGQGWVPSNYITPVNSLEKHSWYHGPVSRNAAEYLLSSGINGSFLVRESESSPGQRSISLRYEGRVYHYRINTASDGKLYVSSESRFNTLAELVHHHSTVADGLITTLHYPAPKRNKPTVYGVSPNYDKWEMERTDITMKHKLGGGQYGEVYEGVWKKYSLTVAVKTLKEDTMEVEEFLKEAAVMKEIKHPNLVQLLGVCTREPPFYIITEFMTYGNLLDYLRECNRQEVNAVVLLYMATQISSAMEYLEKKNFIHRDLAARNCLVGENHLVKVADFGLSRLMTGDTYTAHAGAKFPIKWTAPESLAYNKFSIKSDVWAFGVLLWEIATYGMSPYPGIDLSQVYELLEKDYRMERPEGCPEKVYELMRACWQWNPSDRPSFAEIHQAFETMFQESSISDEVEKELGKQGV

Row | SMILES | pIC50 [1] | pIC50 [2]
1 | N#Cc1ccc(-c2cc(C(=O)Nc3ccc(OC(F)(F)F)cc3)ccc2N2C[C@H](O)[C@@H](O)C2)[nH]1 [Example 29, 3-(5-Cyano-1H-pyrrol-2-yl)-4-((3S,4S)-3,4-dihydroxypyrrolidin-1-yl)-N-(4-(trifluoromethoxy)phenyl)benzamide] | 9.30 | > 10.00
2 | N#Cc1ccc(-c2cc(C(=O)Nc3ccc(OC(F)(F)F)cc3)cnc2N2C[C@H](O)[C@@H](O)C2)[nH]1 [Example 31, 5-(5-Cyano-1H-pyrrol-2-yl)-6-((3S,4S)-3,4-dihydroxypyrrolidin-1-yl)-N-(4-(trifluoromethoxy)phenyl)nicotinamide] | > 9.89 | > 10.00
3 | NC12CC1CN(c1ncc(C(=O)Nc3ccc(OC(F)(F)F)cc3)cc1-c1ccn[nH]1)C2 (centres unmarked) [Example 33, 6-(1-Amino-3-azabicyclo[3.1.0]hexan-3-yl)-5-(1H-pyrazol-5-yl)-N-(4-(trifluoromethoxy)phenyl)nicotinamide] | 8.30 | 8.52
4 | O=C(Nc1ccc(OC(F)(F)F)cc1)c1cnc(N2CCOC(CO)C2)c(-c2ccn[nH]2)c1 (centres unmarked) [Example 36, 6-(2-(Hydroxymethyl)morpholino)-5-(1H-pyrazol-5-yl)-N-(4-(trifluoromethoxy)phenyl)nicotinamide] | 8.09 | 8.30
5 | CN(C)C1CN(c2ncc(C(=O)Nc3ccc(OC(F)(F)F)cc3)cc2-c2ccn[nH]2)C1 [Example 38, 6-(3-(Dimethylamino)azetidin-1-yl)-5-(1H-pyrazol-5-yl)-N-(4-(trifluoromethoxy)phenyl)nicotinamide] | 8.82 | 8.10
6 | O=C(Nc1ccc(OC(F)(F)F)cc1)c1cnc(N2CC(CO)C2)c(-c2ccn[nH]2)c1 [Example 39, 6-(3-(Hydroxymethyl)azetidin-1-yl)-5-(1H-pyrazol-5-yl)-N-(4-(trifluoromethoxy)phenyl)nicotinamide] | 8.35 | 8.52
7 | CC1(O)CN(c2ncc(C(=O)Nc3ccc(OC(F)(F)F)cc3)cc2-c2ccn[nH]2)C1 [Example 40, 6-(3-Hydroxy-3-methylazetidin-1-yl)-5-(1H-pyrazol-5-yl)-N-(4-(trifluoromethoxy)phenyl)nicotinamide] | 8.28 | 8.40
8 | Cc1cc(-c2cc(C(=O)Nc3ccc(OC(F)(F)F)cc3)cnc2N2CC(CO)C2)[nH]n1 [Example 42, 6-(3-(Hydroxymethyl)azetidin-1-yl)-5-(3-methyl-1H-pyrazol-5-yl)-N-(4-(trifluoromethoxy)phenyl)nicotinamide] | 7.74 | 8.70
9 | N#Cc1cc(-c2cc(C(=O)Nc3ccc(OC(F)(F)F)cc3)cnc2N2CCCC2)[nH]n1 [Example 44, 5-(3-Cyano-1H-pyrazol-5-yl)-6-(pyrrolidin-1-yl)-N-(4-(trifluoromethoxy)phenyl)nicotinamide] | 8.15 | 7.72
10 | N#Cc1ccc(-c2cc(C(=O)Nc3ccc(OC(F)(F)Cl)cc3)cnc2N2C[C@H](O)[C@@H](O)C2)[nH]1 [Example 46, N-(4-(Chlorodifluoromethoxy)phenyl)-5-(5-cyano-1H-pyrrol-2-yl)-6-((3S,4S)-3,4-dihydroxypyrrolidin-1-yl)nicotinamide] | 9.40 | 9.00
11 | Cn1c(C#N)ccc1-c1cc(C(=O)Nc2ccc(OC(F)(F)Cl)cc2)cnc1N1CC[C@@H](O)C1 [Example 47, (R)—N-(4-(Chlorodifluoromethoxy)phenyl)-5-(5-cyano-1-methyl-1H-pyrrol-2-yl)-6-(3-hydroxypyrrolidin-1-yl)nicotinamide] | 8.80 | 9.05
12 | NCC1(F)CCN(c2ncc(C(=O)Nc3ccc(OC(F)(F)Cl)cc3)cc2-c2ccn[nH]2)C1 (centres unmarked) [Example 51, 6-(3-(Aminomethyl)-3-fluoropyrrolidin-1-yl)-N-(4-(chlorodifluoromethoxy)phenyl)-5-(1H-pyrazol-5-yl)nicotinamide] | 8.96 | 8.31
13 | CN(C)[C@H]1CN(c2ncc(C(=O)Nc3ccc(OC(F)(F)Cl)cc3)cc2-c2ccn[nH]2)C[C@@H]1O [Example 53, N-(4-(Chlorodifluoromethoxy)phenyl)-6-((3S,4S)-3-(dimethylamino)-4-hydroxypyrrolidin-1-yl)-5-(1H-pyrazol-5-yl)nicotinamide] | 8.85 | > 10.00
14 | NC12CC1CN(c1ncc(C(=O)Nc3ccc(OC(F)(F)Cl)cc3)cc1-c1ccn[nH]1)C2 (centres unmarked) [Example 54, 6-(1-Amino-3-azabicyclo[3.1.0]hexan-3-yl)-N-(4-(chlorodifluoromethoxy)phenyl)-5-(1H-pyrazol-5-yl)nicotinamide] | 9.40 | 9.00
15 | N[C@@H]1[C@H]2CN(c3ncc(C(=O)Nc4ccc(OC(F)(F)Cl)cc4)cc3-c3ccn[nH]3)C[C@@H]12 [Example 55, 6-((1R,5S,6s)-6-Amino-3-azabicyclo[3.1.0]hexan-3-yl)-N-(4-(chlorodifluoromethoxy)phenyl)-5-(1H-pyrazol-5-yl)nicotinamide] | 9.70 | 9.00
16 | O=C(Nc1ccc(OC(F)(F)Cl)cc1)c1cnc(N2CCNC3(CC3)C2)c(-c2ccn[nH]2)c1 [Example 56, N-(4-(Chlorodifluoromethoxy)phenyl)-5-(1H-pyrazol-5-yl)-6-(4,7-diazaspiro[2.5]octan-7-yl)nicotinamide] | 8.54 | 9.00
17 | O=C(Nc1ccc(OC(F)(F)Cl)cc1)c1cnc(N2CCN(C3CC3)CC2)c(-c2ccn[nH]2)c1 [Example 57, N-(4-(Chlorodifluoromethoxy)phenyl)-6-(4-cyclopropylpiperazin-1-yl)-5-(1H-pyrazol-5-yl)nicotinamide] | 8.47 | 8.24
18 | O=C(Nc1ccc(OC(F)(F)Cl)cc1)c1cnc(N2CCN(CCF)CC2)c(-c2ccn[nH]2)c1 [Example 58, N-(4-(Chlorodifluoromethoxy)phenyl)-6-(4-(2-fluoroethyl)piperazin-1-yl)-5-(1H-pyrazol-5-yl)nicotinamide] | 8.62 | 8.24
19 | O=C(Nc1ccc(OC(F)(F)Cl)cc1)c1cnc(N2CCN(CC(F)F)CC2)c(-c2ccn[nH]2)c1 [Example 59, N-(4-(Chlorodifluoromethoxy)phenyl)-6-(4-(2,2-difluoroethyl)piperazin-1-yl)-5-(1H-pyrazol-5-yl)nicotinamide] | 8.48 | 7.59
20 | O=C(Nc1ccc(OC(F)(F)Cl)cc1)c1cnc(N2CCN(CC(F)(F)F)CC2)c(-c2ccn[nH]2)c1 [Example 60, N-(4-(Chlorodifluoromethoxy)phenyl)-5-(1H-pyrazol-5-yl)-6-(4-(2,2,2-trifluoroethyl)piperazin-1-yl)nicotinamide] | > 9.19 | 9.00
21 | NC1CN(c2ncc(C(=O)Nc3ccc(OC(F)(F)Cl)cc3)cc2-c2ccn[nH]2)C1 [Example 64, 6-(3-Aminoazetidin-1-yl)-N-(4-(chlorodifluoromethoxy)phenyl)-5-(1H-pyrazol-5-yl)nicotinamide] | 9.70 | 8.40
22 | CN(C)C1CN(c2ncc(C(=O)Nc3ccc(OC(F)(F)Cl)cc3)cc2-c2ccn[nH]2)C1 [Example 65, N-(4-(Chlorodifluoromethoxy)phenyl)-6-(3-(dimethylamino)azetidin-1-yl)-5-(1H-pyrazol-5-yl)nicotinamide] | 9.05 | 8.25

Source: US9340537B2, “Benzamide derivatives for inhibiting the activity of ABL1, ABL2 and BCR-ABL1” (NOVATIS AG, priority 2012, dated 2016)
